Experiments:
[1] = test system: Lactococcus lactis subsp. cremoris strain MG1363; assay: Survival of the lactic acid bacteria during storage at 4° C. (Example 3); type: cell-based; conditions: for Number of cells per ml: porphyrin compound and aeration, 1% glucose M17, storage at 4° C.
Protocol: A laboratory medium, i.e. M17 supplemented with 1% of glucose, is inoculated with Lactococcus lactis subsp. cremoris strain MG1363 in the form of a 1/1000 dilution of a saturated culture. The cultures are then divided into two equal parts, and hemin is added to one of these two cultures to give a final concentration of 10 μg/ml. […] Aliquots of the two cultures are removed regularly during the exponential growth phase in order to monitor viability, rate of growth and pH. After 24 h of growth, the cultures are placed (stored) in a 30° C. incubator without shaking, and aliquots are removed every 24 h in order to monitor the viability of the cells. The Lactococcus lactis subsp. cremoris strain MG1363 was cultured as in the experiment described in Example 2, but the storage, which is carried out 24 h after inoculation, is at 4° C. instead of at 30° C.

IL896 = assay: Culture with hemin and agitation, different strains (Example 4); type: cell-based, L. lactis; conditions: strain IL896, hemin 10 μg/ml and agitation, M17 1% glucose, 24 h
Protocol: (§1) Bacteria [MG1363 and 7 strains (IL1403, IL582, IL801, IL896, Z105, Z106, Z191) representative of L. lactis subgroups [TAILLEZ et al., System. Appl. Microbiol., 21, 530-538, (1998)] are cultured in M17 medium (1% glucose) inoculated (1/1000 dilution) with a saturated starter culture previously grown at 30° C. for 24 h. Hemin at a final concentration of 10 μg/ml is added to the inoculated medium before aerating the cultures by shaking (minimum 220 rpm). Control cultures are grown in parallel with no hemin in the medium, and no shaking. […]

Z105 = assay: as above; type: cell-based, L. lactis; conditions: strain Z105, hemin 10 μg/ml and agitation, M17 1% glucose, 24 h
Protocol: as §1

MG1363 = assay: as above; type: cell-based, L. lactis; conditions: strain MG1363, hemin 10 μg/ml and agitation, M17 1% glucose, 24 h
Protocol: as §1

Z191 = assay: as above; type: cell-based, L. lactis; conditions: strain Z191, hemin 10 μg/ml and agitation, M17 1% glucose, 24 h
Protocol: as §1

IL582 = assay: as above; type: cell-based, L. lactis; conditions: strain IL582, hemin 10 μg/ml and agitation, M17 1% glucose, 24 h
Protocol: as §1

IL1403 = assay: as above; type: cell-based, L. lactis; conditions: strain IL1403, hemin 10 μg/ml and agitation, M17 1% glucose, 24 h
Protocol: as §1

IL801 = assay: as above; type: cell-based, L. lactis; conditions: strain IL801, hemin 10 μg/ml and agitation, M17 1% glucose, 24 h
[2] = test system: Lactococcus lactis subsp. cremoris strain MG1363; assay: Culturing in the presence of hemin with aeration (Example 1.1); type: cell-based; conditions: for pH: final pH of medium; for pH / OD600 nm / Viable bacterial count / Concentration of lactic acid: hemin 10 μg/ml, aeration, 24 h
Protocol: A laboratory medium (M17 supplemented with glucose in amounts, as indicated in the Table I, lactose being also usable) is inoculated with the Lactococcus lactic subsp. cremoris strain MG1363 in the form of a 1/100 or 1/1000 dilution of a saturated culture (prepared at 30° C. with no shaking). The inoculated medium contained or not hemin at a final concentration of 10 μg/ml (a 0.5 mg/ml stock solution is prepared by dissolving 100 mg of hemin in 2 ml of 5N NaOH, to which 198 ml of water is then added; the solution is autoclaved at 120° C. for 20 minutes). For bacteria grown in medium containing hemin, cultures were maintained at 30° C. with shaking (250 rotations per minute) in order to ensure oxygenation. Control cultures, without addition of hemin and without shaking, were grown at 30° C. in parallel. After 24 h of growth, aliquots are removed to measure the optical density at 600 nm (OD600 nm), the number of viable bacteria, the final pH and the concentration of lactic acid in the medium.

[3] = glucose 5 g/l, dilution factor 100
[4] = glucose 5 g/l, dilution factor 1000
[5] = glucose 6 g/l, dilution factor 100
[6] = glucose 6 g/l, dilution factor 1000
[7] = glucose 7 g/l, dilution factor 100
[8] = glucose 7 g/l, dilution factor 1000
[9] = glucose 8 g/l, dilution factor 100
[10] = glucose 8 g/l, dilution factor 1000
[11] = glucose 9 g/l, dilution factor 100
[12] = glucose 9 g/l, dilution factor 1000
[13] = glucose 10 g/l, dilution factor 100
[14] = glucose 10 g/l, dilution factor 1000

`C=CC1=C(C)c2cc3[n-]c(cc4nc(cc5[n-]c(cc1n2)c(C)c5C=C)C(C)=C4CCC(=O)O)c(CCC(=O)O)c3C.[Cl-].[Fe+3]` [hemin] was tested, and the survival rate ([1]; after 2 months at 4° C., cultured with porphyrin compound under aeration) was about 5%, the “Number of cells per ml” value ([1]; 0 days after culture) was 4.3 × 10^9 cells per ml and the “Number of cells per ml” value ([1]; 1 day after culture) was 4.2 × 10^9 cells per ml. The “Number of cells per ml” value ([1]; 2 days after culture) was 3.8 × 10^9 cells per ml, the “Number of cells per ml” value ([1]; 3 days after culture) was 3.8 × 10^9 cells per ml and the “Number of cells per ml” value ([1]; 7 days after culture) was 4.2 × 10^9 cells per ml. For the same molecule, the “Number of cells per ml” value ([1]; 8 days after culture) was 2.8 × 10^9 cells per ml, the “Number of cells per ml” value ([1]; 9 days after culture) was 2.2 × 10^9 cells per ml and the “Number of cells per ml” value ([1]; 10 days after culture) was 9.6 × 10^8 cells per ml. For the same molecule, the “Number of cells per ml” value ([1]; 13 days after culture) was 5.0 × 10^8 cells per ml, the “Number of cells per ml” value ([1]; 15 days after culture) was 3.2 × 10^8 cells per ml and the “Number of cells per ml” value ([1]; 22 days after culture) was 3.0 × 10^8 cells per ml. For the same molecule, the “Number of cells per ml” value ([1]; 28 days after culture) was 3.0 × 10^8 cells per ml, the “Number of cells per ml” value ([1]; 36 days after culture) was 2.9 × 10^8 cells per ml and the “Number of cells per ml” value ([1]; 43 days after culture) was 2.2 × 10^8 cells per ml. The “Number of cells per ml” value ([1]; 50 days after culture) was 1.8 × 10^8 cells per ml, the “Number of cells per ml” value ([1]; 57 days after culture) was 2.0 × 10^8 cells per ml and the pH (IL896; final pH) was 5.24. For the same molecule, the OD500 nm (IL896) was 4.5, the pH (Z105; final pH) was 5.67 and the OD500 nm (Z105) was 5. For the same molecule, the pH (MG1363; final pH) was 5.86, the OD500 nm (MG1363) was 5 and the pH (Z191; final pH) was 5.36. For the same molecule, the OD500 nm (Z191) was 3.8, the pH (IL582; final pH) was 5.73 and the OD500 nm (IL582) was 5.1. It also gave a pH (IL1403; final pH) of 5.41, an OD500 nm (IL1403) of 5.3 and a pH (IL801; final pH) of 5.44. The OD500 nm (IL801) was 4.3, the “production of lactic acid as share of the quantity of sugar added” value ([2]; cells cultured in the presence of hemin and oxygen) was “less than 10%” and the pH [2, 3] was 6.2. It also gave a pH [2, 4] of 6.19, a pH [2, 5] of 6.25 and a pH [2, 6] of 6.13. The pH [2, 7] was 6.09, the pH [2, 8] was 6.07 and the pH [2, 9] was 6.04. It also gave a pH [2, 10] of 6.03, a pH [2, 11] of 6.02 and a pH [2, 12] of 6.01. For the same molecule, the pH [2, 13] was 6.01, the pH [2, 14] was 5.99 and the OD600 nm [2, 3] was 4.6. For the same molecule, the Viable bacterial count [2, 3] was 5.7 ×10^9, the “Concentration of lactic acid” value [2, 4] was 0.12 g/L and the OD600 nm [2, 4] was 4.5. For the same molecule, the Viable bacterial count [2, 4] was 5.7 ×10^9, the OD600 nm [2, 5] was 5.1 and the Viable bacterial count [2, 5] was 6 ×10^9. For the same molecule, the “Concentration of lactic acid” value [2, 6] was 0.14 g/L, the OD600 nm [2, 6] was 5.5 and the Viable bacterial count [2, 6] was 7.6 ×10^9. The OD600 nm [2, 7] was 5.6, the Viable bacterial count [2, 7] was 9.1 ×10^9 and the “Concentration of lactic acid” value [2, 8] was 0.19 g/L. The OD600 nm [2, 8] was 5.7, the Viable bacterial count [2, 8] was 8.6 ×10^9 and the OD600 nm [2, 9] was 5.9. For the same molecule, the Viable bacterial count [2, 9] was 8.9 ×10^9, the “Concentration of lactic acid” value [2, 10] was 0.35 g/L and the OD600 nm [2, 10] was 5.4. For the same molecule, the Viable bacterial count [2, 10] was 9.3 ×10^9, the OD600 nm [2, 11] was 5.9 and the Viable bacterial count [2, 11] was 9.2 ×10^9. For the same molecule, the “Concentration of lactic acid” value [2, 12] was 0.52 g/L, the OD600 nm [2, 12] was 5.8 and the Viable bacterial count [2, 12] was 9.4 ×10^9. The OD600 nm [2, 13] was 6.1, the Viable bacterial count [2, 13] was 10.1 ×10^9 and the “Concentration of lactic acid” value [2, 14] was 0.98 g/L. For the same molecule, the OD600 nm [2, 14] was 6.2, the Viable bacterial count [2, 14] was 9.6 ×10^9 and the “pH of the culture (remains stable)” value ([2]; hemin and oxygen, whatever the concentration of glucose) was “approximately 6.1”.

Reference: patent publication US20160075991A1, “Process for Preparing Starter Cultures of Lactic Acid Bacteria” (INSTITUT NATIONAL DE LA RECHERCHE, priority 1998, published 2016)
